What was measured:
Type in all cases: binding
Details in all cases: Compound Concentration 10 µM
[1] = biological target: T1, panel of 442 kinases (Homo sapiens, UniProt P00533, L858R/T790M)
T1 construct: purchased KINOMEscan
From the text: (§1) We assessed the selectivity of members of this scaffold using the KINOMEscan methodology across a near comprehensive panel of 442 kinases [[18,27]].

[2] = biological target: T2, panel of 442 kinases (Homo sapiens, UniProt P42336)
T2 construct: purchased KINOMEscan
From the text: as §1

[3] = biological target: T3, panel of 442 kinases (Homo sapiens, UniProt Q86Z02)
T3 construct: purchased KINOMEscan
From the text: as §1

T1 sequence (P00533 25-1210 T790M/L858R): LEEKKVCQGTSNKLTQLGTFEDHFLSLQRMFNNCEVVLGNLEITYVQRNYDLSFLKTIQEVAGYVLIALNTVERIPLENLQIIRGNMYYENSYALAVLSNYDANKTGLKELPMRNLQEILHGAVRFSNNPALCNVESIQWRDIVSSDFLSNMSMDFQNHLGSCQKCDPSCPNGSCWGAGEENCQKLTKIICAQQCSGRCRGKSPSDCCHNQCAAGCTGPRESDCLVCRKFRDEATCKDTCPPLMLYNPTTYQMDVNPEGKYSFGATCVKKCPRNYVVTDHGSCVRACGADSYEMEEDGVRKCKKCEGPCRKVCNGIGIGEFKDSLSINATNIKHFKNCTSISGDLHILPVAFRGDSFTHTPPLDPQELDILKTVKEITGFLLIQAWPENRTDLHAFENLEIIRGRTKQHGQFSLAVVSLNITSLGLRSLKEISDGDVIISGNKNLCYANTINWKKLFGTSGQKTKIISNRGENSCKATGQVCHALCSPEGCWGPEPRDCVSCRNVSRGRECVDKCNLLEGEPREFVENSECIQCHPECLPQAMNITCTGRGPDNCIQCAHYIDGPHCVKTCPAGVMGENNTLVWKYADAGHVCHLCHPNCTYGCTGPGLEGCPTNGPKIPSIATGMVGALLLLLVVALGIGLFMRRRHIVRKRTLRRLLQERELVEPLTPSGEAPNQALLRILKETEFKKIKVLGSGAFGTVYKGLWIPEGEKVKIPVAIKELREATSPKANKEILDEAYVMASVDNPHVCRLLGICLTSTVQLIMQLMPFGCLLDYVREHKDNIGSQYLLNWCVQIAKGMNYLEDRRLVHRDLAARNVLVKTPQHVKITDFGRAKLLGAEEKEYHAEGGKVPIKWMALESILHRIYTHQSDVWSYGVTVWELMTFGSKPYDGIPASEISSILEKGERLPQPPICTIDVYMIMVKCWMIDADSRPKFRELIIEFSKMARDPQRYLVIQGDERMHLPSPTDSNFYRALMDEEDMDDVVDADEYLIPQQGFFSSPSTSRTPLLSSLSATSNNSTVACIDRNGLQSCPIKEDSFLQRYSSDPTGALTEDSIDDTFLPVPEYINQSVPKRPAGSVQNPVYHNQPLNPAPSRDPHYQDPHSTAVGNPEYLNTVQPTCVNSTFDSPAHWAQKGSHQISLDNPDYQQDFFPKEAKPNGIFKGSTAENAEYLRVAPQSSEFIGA
T3 sequence (Q86Z02 whole entry): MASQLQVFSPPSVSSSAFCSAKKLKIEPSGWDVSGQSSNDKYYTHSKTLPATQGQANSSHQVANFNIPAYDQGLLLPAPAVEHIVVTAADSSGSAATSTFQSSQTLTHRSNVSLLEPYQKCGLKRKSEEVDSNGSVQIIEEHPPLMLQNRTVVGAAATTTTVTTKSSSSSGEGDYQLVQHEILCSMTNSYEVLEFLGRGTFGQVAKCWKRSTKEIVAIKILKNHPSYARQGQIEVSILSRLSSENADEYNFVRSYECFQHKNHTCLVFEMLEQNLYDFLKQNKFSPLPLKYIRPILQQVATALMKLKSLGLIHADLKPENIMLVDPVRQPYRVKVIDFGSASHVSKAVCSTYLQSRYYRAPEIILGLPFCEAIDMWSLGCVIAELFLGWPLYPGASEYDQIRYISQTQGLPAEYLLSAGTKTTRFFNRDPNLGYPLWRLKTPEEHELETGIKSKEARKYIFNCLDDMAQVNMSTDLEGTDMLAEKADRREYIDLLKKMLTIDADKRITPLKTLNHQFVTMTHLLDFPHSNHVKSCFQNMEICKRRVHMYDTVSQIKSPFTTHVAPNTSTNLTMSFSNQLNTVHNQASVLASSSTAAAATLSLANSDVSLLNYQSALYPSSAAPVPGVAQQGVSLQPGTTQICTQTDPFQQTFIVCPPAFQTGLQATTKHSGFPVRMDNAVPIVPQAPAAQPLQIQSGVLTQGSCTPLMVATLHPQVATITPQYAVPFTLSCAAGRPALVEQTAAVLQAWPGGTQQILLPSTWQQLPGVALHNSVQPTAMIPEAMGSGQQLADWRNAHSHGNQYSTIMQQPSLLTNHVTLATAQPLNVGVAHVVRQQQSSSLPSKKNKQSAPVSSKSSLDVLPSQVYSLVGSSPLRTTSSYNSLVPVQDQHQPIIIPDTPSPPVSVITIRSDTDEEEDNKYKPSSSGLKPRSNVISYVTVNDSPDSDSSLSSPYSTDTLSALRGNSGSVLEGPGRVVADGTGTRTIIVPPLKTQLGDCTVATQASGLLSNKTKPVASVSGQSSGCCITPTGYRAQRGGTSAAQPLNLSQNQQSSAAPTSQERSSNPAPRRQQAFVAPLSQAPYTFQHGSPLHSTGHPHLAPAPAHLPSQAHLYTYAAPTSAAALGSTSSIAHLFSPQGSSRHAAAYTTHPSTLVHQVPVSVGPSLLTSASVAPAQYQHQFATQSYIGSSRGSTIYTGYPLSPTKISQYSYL
T2 sequence (P42336 whole entry): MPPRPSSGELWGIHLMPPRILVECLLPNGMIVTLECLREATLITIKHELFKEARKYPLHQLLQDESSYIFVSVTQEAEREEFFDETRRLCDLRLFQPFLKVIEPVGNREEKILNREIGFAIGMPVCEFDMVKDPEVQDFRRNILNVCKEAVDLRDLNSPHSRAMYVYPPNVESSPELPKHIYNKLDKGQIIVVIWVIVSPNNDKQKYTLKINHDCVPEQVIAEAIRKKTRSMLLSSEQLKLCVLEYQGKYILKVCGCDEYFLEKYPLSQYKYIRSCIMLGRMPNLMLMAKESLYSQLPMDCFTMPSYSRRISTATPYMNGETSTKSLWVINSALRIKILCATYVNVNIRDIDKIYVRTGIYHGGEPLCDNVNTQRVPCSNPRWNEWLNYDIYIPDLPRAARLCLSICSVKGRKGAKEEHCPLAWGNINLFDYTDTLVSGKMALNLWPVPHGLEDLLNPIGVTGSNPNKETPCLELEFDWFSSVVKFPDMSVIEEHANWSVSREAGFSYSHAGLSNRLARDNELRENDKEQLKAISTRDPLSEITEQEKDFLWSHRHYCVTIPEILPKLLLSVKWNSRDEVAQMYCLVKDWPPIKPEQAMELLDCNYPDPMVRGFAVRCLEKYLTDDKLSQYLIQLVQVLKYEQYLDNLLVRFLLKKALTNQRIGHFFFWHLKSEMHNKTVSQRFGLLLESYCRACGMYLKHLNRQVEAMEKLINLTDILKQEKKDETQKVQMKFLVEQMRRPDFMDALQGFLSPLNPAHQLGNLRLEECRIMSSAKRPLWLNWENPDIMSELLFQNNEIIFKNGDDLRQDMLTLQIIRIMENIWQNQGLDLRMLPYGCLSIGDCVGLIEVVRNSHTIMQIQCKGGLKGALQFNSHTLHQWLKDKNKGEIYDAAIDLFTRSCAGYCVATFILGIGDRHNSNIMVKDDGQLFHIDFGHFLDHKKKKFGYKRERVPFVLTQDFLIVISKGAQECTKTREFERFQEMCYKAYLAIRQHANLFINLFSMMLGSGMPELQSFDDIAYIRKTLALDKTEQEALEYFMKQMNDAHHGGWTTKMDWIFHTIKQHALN

| Structure (SMILES) | KINOMEscan: EGFR(L858R,T790M) [1] | KINOMEscan: PIK3CA [2] | KINOMEscan: HIPK1 [3] |
| --- | --- | --- | --- |
| COc1cc(C(=O)N2CCC(N3CCN(C)CC3)CC2)ccc1Nc1ncc2c(n1)N(C)c1ccccc1C(=O)N2C [15 (LRRK2-IN-1)] | 84 | 74 | 100 |
| CCOc1cc(C(=O)N2CCC(N3CCN(C)CC3)CC2)ccc1Nc1ncc2c(n1)N(C1CCCC1)c1ccccc1C(=O)N2C [Compound 26] | 78 | 100 | 100 |
| COc1cc(C(=O)N2CCC(N3CCN(C)CC3)CC2)ccc1Nc1ncc2c(n1)N1CCc3cccc(c31)C(=O)N2C [Compound 24] |  |  | 52 |
| COc1cc(C(=O)N2CCC(N3CCN(C)CC3)CC2)ccc1Nc1ncc2c(n1)N(C1CCCC1)c1ccccc1C(=O)N2C [Compound 25, 11-cyclopentyl-2-((2-methoxy-4-(4-(4-methylpiperazin-1-yl)piperidine-1-carbonyl)phenyl)amino)-5-methyl-5H-benzo[e]pyrimido[5,4-b][1,4]diazepin-6(11H)-one] | 100 | 100 | 100 |

Reference: publication PMC3914206
